Results published in patent US10106542B2, “Substituted 6,7-dihydropyrazolo[1,5-a]pyrazines as negative allosteric modulators of mGluR2 receptors” (Janssen Pharmaceutica NV, priority 2013, dated 2018).

Biological target: T1, human mGlu2 receptor (Homo sapiens, UniProt Q14416)
T1 construct: expressed in transfected cells; host or cells: CHO cells (membrane preparation)
Assay: [35S]GTPγS binding assay (mGluR2 negative allosteric modulation)
Format: biochemical
Settings: for IC50: read-out: GTPγS - hmGluR2 anGT pIC50 (converted); for Emax / GTPγS - hmGluR2 anGT Emax: relative maximal effect: maximal % inhibition relative to the control glutamate response; for Emax: read-out: GTPγS - hmGluR2 anGT Emax
Procedure: 1) [^35S]GTPγS binding assay
The [^35S]GTPγS binding assay is a functional membrane-based assay used to study G-protein coupled receptor (GPCR) function whereby incorporation of a non-hydrolysable form of GTP, [^35S]GTPγS (guanosine 5′-triphosphate, labelled with […] ^35S), is measured. The G-protein a subunit catalyzes the exchange of guanosine 5′-diphosphate (GDP) by guanosine triphosphate (GTP) and on activation of the GPCR by an agonist, [^35S]GTPγS, becomes incorporated and cannot be cleaved to continue the exchange cycle (Harper (1998) Current Protocols in Pharmacology 2.6.1-10, John Wiley & Sons, Inc.). […] Here we describe the use of the [^35S]GTPγS binding assay using membranes from cells transfected with the human mGlu2 receptor and adapted from Schaffhauser et al. (Molecular Pharmacology, 2003, […]) for the detection of the negative allosteric modulation (NAM) properties of the compounds of this invention.
CHO-cells were cultured to pre-confluence and stimulated with 5 mM butyrate for 24 h. Cells were then collected by scraping in PBS and cell suspension was centrifuged (10 min at 4000 RPM in benchtop centrifuge). Supernatant was discarded and pellet gently resuspended in 50 mM Tris-HCl, pH 7.4 by mixing with an Ultra Turrax homogenizer. The suspension was centrifuged at 12,400 RPM (Sorvall F14S-6x250Y) for 10 minutes and the supernatant discarded. The pellet was homogenized in 5 mM Tris-HCl, pH 7.4 using an Ultra Turrax homogenizer and centrifuged again (13,000 RPM, 20 min, 4° C.). The final pellet was resuspended in 50 mM Tris-HCl, pH 7.4 and stored at −80° C. in appropriate aliquots before use. Protein concentration was determined by the Bradford method (Bio-Rad, USA) with bovine serum albumin as standard.
Measurement of mGluR2 negative allosteric modulatory activity of test compounds was performed as follows. Test compounds and glutamate were diluted in assay buffer containing 10 mM HEPES acid, 10 mM HEPES salt, pH 7.4, 100 mM NaCl, 3 mM MgCl2 and 10 μM GDP. Human mGlu2 receptor-containing membranes were thawed on ice and diluted in assay buffer supplemented with 18 μg/ml saponin. […] After addition of [^35S]GTPγS (f.c. 0.1 nM), assay mixtures were shaken briefly and further incubated to allow [^35S]GTPγS incorporation on activation (30 minutes, 30° C.). Final assay mixtures contained 7 μg of membrane protein in 10 mM HEPES acid, 10 mM HEPES salt, pH 7.4, 100 mM NaCl, 3 mM MgCl2, 10 μM GDP and 10 μg/ml saponin. Total reaction volume was 200 μl. Reactions were terminated by rapid filtration through Unifilter-96 GF/B plates (Perkin Elmer, Massachusetts, USA) using a 96-well filtermate universal harvester. Filters were washed 6 times with ice-cold 10 mM NaH2PO4/10 mM Na2HPO4, pH 7.4. Filters were then air-dried, and 30 μl of liquid scintillation cocktail (Microscint-O) was added to each well. Membrane-bound radioactivity was counted in a Topcount.
The concentration-response curves of representative compounds of the present invention were generated using the Lexis software interface (developed at J&J). Data were calculated as % of the control glutamate response, defined as the response that is generated upon addition of an EC80-equivalent concentration of glutamate.

[1] = membranes from CHO cells transfected with human mGlu2 receptor, glutamate 60 μM, pIC50 = −log IC50 (M)

T1 sequence (Q14416 19-872): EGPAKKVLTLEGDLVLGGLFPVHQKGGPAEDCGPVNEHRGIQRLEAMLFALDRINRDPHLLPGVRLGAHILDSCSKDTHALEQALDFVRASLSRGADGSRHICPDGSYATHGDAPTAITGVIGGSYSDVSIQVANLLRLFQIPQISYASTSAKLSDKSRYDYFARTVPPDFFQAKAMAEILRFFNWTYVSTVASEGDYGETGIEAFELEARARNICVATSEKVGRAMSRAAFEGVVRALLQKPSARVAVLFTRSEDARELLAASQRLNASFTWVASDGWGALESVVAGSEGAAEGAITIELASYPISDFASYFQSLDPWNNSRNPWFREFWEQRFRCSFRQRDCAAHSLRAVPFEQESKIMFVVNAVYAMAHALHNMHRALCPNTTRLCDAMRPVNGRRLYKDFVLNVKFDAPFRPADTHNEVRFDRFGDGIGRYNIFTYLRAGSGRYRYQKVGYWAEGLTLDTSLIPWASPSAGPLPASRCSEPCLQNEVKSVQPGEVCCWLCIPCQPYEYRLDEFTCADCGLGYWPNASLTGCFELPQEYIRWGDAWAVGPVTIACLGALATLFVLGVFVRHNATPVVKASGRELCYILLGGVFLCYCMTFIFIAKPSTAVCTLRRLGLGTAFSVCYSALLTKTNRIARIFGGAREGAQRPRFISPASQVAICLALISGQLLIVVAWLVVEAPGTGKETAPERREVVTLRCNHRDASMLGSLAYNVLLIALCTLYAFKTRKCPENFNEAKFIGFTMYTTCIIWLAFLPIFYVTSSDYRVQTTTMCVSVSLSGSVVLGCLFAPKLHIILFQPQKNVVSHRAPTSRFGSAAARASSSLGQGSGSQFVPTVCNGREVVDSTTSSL

Structure (SMILES) | IC50 [1] [M] | Emax [%] | GTPγS - hmGluR2 anGT Emax [%] | GTPγS - hmGluR2 anGT pIC50 [1]
Cc1cc(-c2cnn3c2C(=O)N(c2ccc(Cl)c(Cl)c2)CC3CF)ccn1 (single isomer, unassigned) [compound 115] | 7.08e-09 | 108 | – | –
Cc1cc(-c2cnn3c2C(=O)N(c2ccc(Cl)c(Cl)c2)CC3CF)ccn1 (single isomer, unassigned) [compound 116] | 5.62e-07 | – | 105 | –
COCC1CN(c2ccc(Cl)c(Cl)c2)C(=O)c2c(-c3ccnc(C)c3)cnn21 (single isomer, unassigned) [compound 118] | 1.95e-08 | 105 | – | –
COCC1CN(c2ccc(Cl)c(Cl)c2)C(=O)c2c(-c3ccnc(C)c3)cnn21 (single isomer, unassigned) [compound 119] | 2.51e-06 | – | 100 | –
COCC1CN(c2ccc(C(F)(F)F)cc2)C(=O)c2c(-c3ccnc(C)c3)cnn21 (single isomer, unassigned) [compound 120] | 6.46e-08 | – | 106 | –
COCC1CN(c2ccc(C(F)(F)F)cc2)C(=O)c2c(-c3ccnc(C)c3)cnn21 (single isomer, unassigned) [compound 121] | 1.62e-05 | – | 75 | –
CNc1cc(-c2cnn3c2C(=O)N(c2ccc(Cl)c(Cl)c2)CC3CF)ccn1 (single isomer, unassigned) [compound 184] | 2.75e-07 | 105 | – | –
CNc1cc(-c2cnn3c2C(=O)N(c2ccc(Cl)c(Cl)c2)CC3CF)ccn1 (single isomer, unassigned) [compound 185] | 6.03e-09 | – | 104 | –
Cc1cc(-c2cnn3c2C(=O)N(c2ccc(Cl)c(Cl)c2)C[C@@H]3C)ccn1 [6a] | 4.79e-09 | – | 112 | –
CCOc1ccc(N2C[C@H](C)n3ncc(-c4ccnc(C)c4)c3C2=O)cc1Cl [compound 17] | 4.79e-08 | 104 | – | –
COc1ccc(N2C[C@H](C)n3ncc(-c4ccnc(C)c4)c3C2=O)cc1Cl [compound 20] | 8.71e-08 | 104 | – | –
Cc1cc(-c2cnn3c2C(=O)N(c2ccc(F)c(F)c2)C[C@@H]3C)ccn1 [compound 25] | 1.45e-07 | 103 | – | –
Cc1cc(-c2cnn3c2C(=O)N(c2ccc(F)cc2)C[C@@H]3C)ccn1 [compound 28] | 2.4e-07 | 105 | – | –
C[C@H]1CN(c2ccc(C(F)(F)F)cc2)C(=O)c2c(-c3cccnc3)cnn21 [compound 32] | 5.62e-07 | 101 | – | –
Cc1cc(-c2cnn3c2C(=O)N(c2ccc4c(c2)OCCO4)C[C@@H]3C)ccn1 [compound 42] | 3.09e-06 | 102 | – | –
Cc1cc(-c2cnn3c2C(=O)N(c2ccc(C(F)(F)F)c(OCCF)c2)C[C@@H]3C)ccn1 [compound 48] | 7.76e-09 | 100 | – | –
Cc1cc(-c2cnn3c2C(=O)N(c2cccc(OC(F)(F)F)c2)C[C@@H]3C)ccn1 [compound 58] | 2.19e-08 | 107 | – | –
Cc1cc(-c2cnn3c2C(=O)N(c2cc(F)cc(Cl)c2)C[C@@H]3C)ccn1 [compound 63] | 3.39e-08 | 105 | – | –
Cc1cc(-c2cnn3c2C(=O)N(c2ccc(C(C)C)cc2)C[C@@H]3C)ccn1 [compound 65] | 4.47e-08 | 106 | – | –
CCCc1ccc(N2C[C@H](C)n3ncc(-c4ccnc(C)c4)c3C2=O)cc1 [compound 66] | 4.07e-08 | 107 | – | –
Cc1cc(-c2cnn3c2C(=O)N(c2ccc(F)c(C(F)(F)F)c2)C[C@@H]3C)ccn1 [compound 67, (7S)-5-[4-Fluoro-3-(trifluoromethyl)phenyl]-7-methyl-3-(2-methyl-4-pyridyl)-6,7-dihydropyrazolo[1,5-a]pyrazin-4-one] | 6.31e-08 | 104 | – | –
Cc1cc(-c2cnn3c2C(=O)N(c2cc(F)cc(OC(F)F)c2)C[C@@H]3C)ccn1 [compound 69] | 5.37e-08 | 103 | – | –

Structure (SMILES) | IC50 [1] [M] | Emax [%] | GTPγS - hmGluR2 anGT Emax [%] | GTPγS - hmGluR2 anGT pIC50 [1]
CCC1CN(c2ccc(C(F)(F)F)cc2)C(=O)c2c(-c3ccnc(C)c3)cnn21 (stereo not shown) [compound 70] | – | 106 | – | 7.1
Cc1cc(-c2cnn3c2C(=O)N(c2ccc(C#N)c(F)c2)C[C@@H]3C)ccn1 [compound 75] | 2.75e-07 | 100 | – | –
Cc1cc(-c2cnn3c2C(=O)N(c2ccc(C)c(F)c2)C[C@@H]3C)ccn1 [compound 76] | 2.82e-07 | 100 | – | –
Cc1cc(-c2cnn3c2C(=O)N(c2ccccc2)C[C@@H]3C)ccn1 [compound 86] | 1e-06 | 102 | – | –
COc1cc(-c2cnn3c2C(=O)N(c2ccc(Cl)cc2)C[C@@H]3C)ccn1 [compound 89] | 4.17e-08 | 104 | – | –
C[C@H]1CN(c2ccc(C(F)(F)F)c(Cl)c2)C(=O)c2c(-c3ccnc(N4CC(F)C4)c3)cnn21 [compound 92] | 2.95e-09 | 107 | – | –
CNc1cc(-c2cnn3c2C(=O)N(c2ccc(Cl)c(Cl)c2)CC3CF)ccn1 (stereo not shown) [compound 93] | 1.82e-08 | 105 | – | –
C[C@H]1CN(c2ccc(C(F)(F)F)cc2)C(=O)c2c(-c3ccnc(N4CC(F)C4)c3)cnn21 [compound 94] | 5.5e-08 | 108 | – | –
C[C@H]1CN(c2ccc(C(F)(F)F)c(Cl)c2)C(=O)c2c(-c3ccnc(N4CCC4)c3)cnn21 [compound 96] | 1.23e-09 | 108 | – | –
C[C@H]1CN(c2ccc(Cl)c(Cl)c2)C(=O)c2c(-c3ccnc(N4CCC4)c3)cnn21 [compound 97] | 1.66e-09 | 104 | – | –
Cc1cc(-c2cnn3c2C(=O)N(c2ccc(C(F)(F)F)c(CF)c2)C[C@@H]3C)ccn1 [compound 98] | 6.46e-09 | 111 | – | –
CC(=O)N1CCN(c2cc(-c3cnn4c3C(=O)N(c3ccc(C(F)(F)F)cc3)C[C@@H]4C)ccn2)CC1 [compound 106, (7S)-3-[2-(4-Acetylpiperazin-1-yl)-4-pyridyl]-7-methyl-5-[4-(trifluoromethyl)phenyl]-6,7-dihydropyrazolo[1,5-a]pyrazin-4-one] | 6.03e-07 | 109 | – | –
C[C@H]1CN(c2ccc(C(F)(F)F)cc2)C(=O)c2c(-c3ccnc(N4CCCCC4)c3)cnn21 [compound 107] | 1.78e-08 | 114 | – | –
Cc1cc(-c2cnn3c2C(=O)N(c2ccc(C(C)C(F)(F)F)cc2)C[C@@H]3C)ccn1 (stereo partly shown) [compound 113] | 9.12e-08 | 103 | – | –
C[C@H]1CN(c2ccc(Cl)c(Cl)c2)C(=O)c2c(-c3ccnc(CF)c3)cnn21 [compound 117] | 7.59e-09 | 109 | – | –
C[C@H]1CN(c2ccc(Cl)c(Cl)c2)C(=O)c2c(-c3ccnc(C4CC4)c3)cnn21 [compound 122] | 3.72e-09 | 108 | – | –
CCOc1cc(-c2cnn3c2C(=O)N(c2ccc(Cl)c(Cl)c2)C[C@@H]3C)ccn1 [compound 133] | 8.32e-09 | 104 | – | –
CCc1cc(-c2cnn3c2C(=O)N(c2ccc(Cl)c(Cl)c2)C[C@@H]3C)ccn1 [compound 134] | 3.24e-09 | 104 | – | –
CC(C)Oc1cc(-c2cnn3c2C(=O)N(c2ccc(Cl)c(Cl)c2)C[C@@H]3C)ccn1 [compound 137] | 1.82e-08 | 107 | – | –
CC(C)Oc1cc(-c2cnn3c2C(=O)N(c2ccc(C(F)(F)F)cc2)C[C@@H]3C)ccn1 [compound 138] | 6.76e-08 | 105 | – | –
Cc1cc(-c2cnn3c2C(=O)N(c2ccc(Br)cc2)C[C@@H]3C)ccn1 [compound 139] | 3.63e-08 | 106 | – | –
Cc1cc(-c2cnn3c2C(=O)N(c2ccc(C(C)(C)C)cc2)C[C@@H]3C)ccn1 [compound 141] | 6.17e-08 | 102 | – | –
